Literature values as cited in patent US9199026B2, “Modular extracorporeal systems and methods for treating blood-borne diseases” (SOMERSET GROUP ENTERPRISES, INC., priority 2011, dated 2015).
Blank lines part the entries; values can stand above or below the compound they belong to.

Key:
[1] = at acidic pH
[2] = test system: Listeria; conditions: carbonation volume about 2, about 35° C., pressure up to about 350 MPa, about 300 seconds
[3] = test system: pathogen; conditions: pH 6.0 compared to pH 7.4
[4] = test system: S. aureus; conditions: basic vs slightly acidic pH
[5] = test system: MRSA; conditions: raised oxygen levels

fraction under a neutral form [1]: 50%
SMILES: Nc1nc(-n2cc(C(=O)O)c(=O)c3cc(F)c(N4CC(O)C4)c(Cl)c32)c(F)cc1F [delafloxacin]

SMILES: O=C=O [CO2, Carbon dioxide]
effect on inactivation of Listeria [2]: enhanced the inactivation of Listeria

SMILES: N#Cc1c(N2C[C@@H]3NCCO[C@H]3C2)c(F)cc2c(=O)c(C(=O)O)cn(C3CC3)c12 [Finafloxacin, finafloxacin]
increase in activity (lowering of the MIC) [3]: 4- to 8 fold

SMILES: CN[C@H](CC(C)C)C(=O)N[C@H]1C(=O)N[C@@H](CC(N)=O)C(=O)N[C@H]2C(=O)N[C@H]3C(=O)N[C@H](C(=O)N[C@H](C(=O)O)c4cc(O)cc(O)c4-c4cc3ccc4O)[C@H](O)c3ccc(c(Cl)c3)Oc3cc2cc(c3O[C@@H]2O[C@H](CO)[C@@H](O)[C@H](O)[C@H]2O[C@H]2C[C@](C)(N)[C@H](O)[C@H](C)O2)Oc2ccc(cc2Cl)[C@H]1O [vancomycin]
killing S. aureus, basic versus slightly acidic conditions [4]: killing S. aureus under basic conditions better than under slightly acidic conditions | effect of raising oxygen levels on resistance of MRSA [5]: decreases the resistance of MRSA to vancomycin
